Test system: Saccharomyces cerevisiae ABC16-Green Monster
Experiment: growth inhibition at single dose (up to 150 µM), below the 70% cut-off for dose-response; higher = more potent
Details: 18 h; 30 °C; YPD
Procedure, shortened: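 Values are percent growth inhibition of drug-sensitive S. cerevisiae ABC16-Green Monster cells. Cells grown overnight in YPD at 30 °C were diluted to log phase (OD600 0.1–0.2), and each library compound was added at a single dose of 150 µM to 200 µl culture per well in 96-well plates, in biological duplicates, beside untreated cultures. OD600 was read at 0 h and after 18 h at 30 °C, and compounds under 70% in both replicates were not taken to dose-response.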

Structure (SMILES)	growth inhibition at single dose [%]
Oc1c2c(nc3cc(-c4ccccc4)nn13)CCCC2	< 70
CNC(=O)c1cc(S(=O)(=O)N2CCN(c3ccccn3)CC2)cs1	< 70
O=C(NC1CCCCC1)N1CCN(Cc2ccc3c(c2)OCO3)CC1	< 70
Cc1ccc2c(c1)s/c(=N/C(=O)c1cccs1)n2C	< 70
COC(=O)c1cc(C(=O)OC)cc(-n2c(C)cc(C(=O)Cn3ncc(Cl)c(Cl)c3=O)c2C)c1	< 70
Cc1ccc(O)c(C(=O)c2c[nH]c(-c3nc4ccccc4[nH]3)c2)c1	< 70
Cc1nn2c(=O)c(Cc3ccccc3)c(C)[nH]c2c1-c1ccc(F)cc1	< 70
O=C(Nc1ccc(-c2nc3cc4ccccc4cc3[nH]2)cc1)c1cccc(Br)c1	< 70
N#Cc1ccc(Cc2cnc(NC(=O)c3ccc4ncsc4c3)s2)cc1	< 70
CCCCOC(=O)c1ccc(Nc2cc(C)nc3ccc(OC)cc23)cc1	< 70
CN(C)c1ccc(-c2nc3cc(N)ccc3[nH]2)cc1	< 70
Cc1ccnc(NC(c2cccc(OCc3ccccc3)c2)c2ccc3cccnc3c2O)c1 (stereo not given)	< 70
CCOC(=O)c1c(C)nn(-c2ccc(NC(=O)c3cccs3)cc2)c1C	< 70
CCN(CC)CCCNc1ccnc2cc3ccccc3cc12	< 70
CCN(CC)CCCN1CCN(C(=O)c2cccc(-c3noc(C(F)(F)F)n3)c2)CC1	< 70
Cc1nn(Cc2ccccc2)c(Cl)c1/C=C/C(=O)OC(C)C(=O)N1CCCC1 (stereo not given)	< 70
COc1ccc(CCN2C(=O)c3[nH]nc(-c4cc(Cl)c(C)cc4O)c3C2c2ccccc2F)cc1 (stereo not given)	< 70
COc1cc2c(cc1OC)CN(CCNc1ncnc3sccc13)CC2	< 70
COc1ccc(C(=O)Nc2ccc(Cl)cc2C(=O)Nc2ccncc2)cc1	< 70
Clc1cc(Br)ccc1-c1ccc(CNCC2CCNCC2)o1	< 70
C=CCc1c(C)nc2ccccc2c1O	< 70
COc1cc(CNCCc2ccc(Cl)cc2)cc(OC)c1O	< 70
COc1ccc(C(O)(CCC(C)C)C(CN2CCOCC2)c2ccc(Cl)cc2)cc1 (stereo not given)	< 70
CCOC(=O)c1c(C)[nH]c(C(=O)CSc2nccn2C)c1C	< 70

Structure (SMILES)	growth inhibition at single dose [%]
NC(=O)c1cc(-c2ccsc2)ccc1OCCOc1ccccc1	< 70
COC(=O)c1ccccc1NC(=O)/C=C/c1ccc(N2CCCS2(=O)=O)cc1	< 70
O=C(c1cc2ccccc2o1)N1CCN(Cc2ccc3c(c2)OCO3)CC1	< 70
Cc1cc(N2CCN(CCO)CC2)n2ncc(-c3ccc(F)cc3)c2n1	< 70
O=C(NC(=O)c1csnn1)Nc1cc(C(F)(F)F)cc(C(F)(F)F)c1	< 70
CCCCn1c(C(C)Oc2ccc(Cl)cc2Cl)nc2cc(S(N)(=O)=O)ccc21 (stereo not given)	< 70
N#C/C(=N\Nc1cccc(Cl)c1)C(=O)c1cc(-c2ccccc2)c(C(F)(F)F)s1	< 70
OC(c1cn2cc(-c3ccc(F)cc3)nc2s1)(C(F)(F)F)C(F)(F)F	< 70
CCCc1ccc(-c2nc(-c3cccs3)no2)cc1	< 70
CC(=O)Nc1cccc(Oc2ccc(C(=O)Nc3ccc4ccccc4c3)cc2[N+](=O)[O-])c1	< 70
CC(C)CN(C(=O)c1ccc(N2CCCC2)c([N+](=O)[O-])c1)c1nc2ccccc2s1	< 70
CCN(CC)S(=O)(=O)c1ccc(-c2csc(Nc3ccc(C)c(C)c3)n2)cc1	< 70
CC(c1ccc(-c2ccccc2)c(F)c1)c1nn2c(-c3ccco3)nnc2s1 (stereo not given)	< 70
COc1ccc(C2NCCc3c2[nH]c2ccccc32)cc1CN1CCN(c2ccc(F)cc2)CC1 (stereo not given)	< 70
COc1ccc(Nc2cc(C)nc(-n3nc(C)cc3C)n2)cc1	< 70
C[C@H](C(N)=O)N1CCCC[C@@H]1c1ccc(OCc2cccc(F)c2)cc1	< 70
Cc1ccc(NC(=O)c2cc(C(C)(C)C)n(-c3ccccc3)c2C)cc1	< 70
COc1ccc(CCN2CCC(NCc3cccc(N(C)C)c3)CC2)cc1	< 70
COCCn1c(C)cc(C(=O)CSc2nnc(C)s2)c1C	< 70
Oc1ccc(Br)cc1CN1CCN(Cc2cccc(F)c2)CC1	< 70
CN1CCCN(C(=O)CCNC(=O)/C=C/c2ccco2)c2nc3ccccc3nc21	< 70
Cc1ccc(S(=O)(=O)N2CCN(C(=O)c3cc(-c4ccccc4)[nH]n3)CC2)cc1	< 70
CCN1CCN(c2cc(C)c3cc(NC(=O)c4ccc(OC)c(OC)c4)ccc3n2)CC1	< 70
CCCS(=O)(=O)c1cnc(C2COc3ccccc3O2)nc1N (stereo not given)	< 70

Structure (SMILES)	growth inhibition at single dose [%]
Cc1c(C)n(CCCO)c2ncn3nc(-c4ccccc4)nc3c12	< 70
CC(Nc1ncnc2sccc12)c1ccc(-n2cncn2)cc1 (stereo not given)	< 70
CC(=O)NCc1ccc(C(=O)Nc2ccccc2O)cc1	< 70
CCCCN(CCCC)c1c(C#N)cc(S(=O)(=O)Nc2ccccc2)cc1C#N	< 70
O=C(Nc1ccccc1)c1cn(-c2ccc3c(c2)OCCO3)nn1	< 70
Oc1c(C(Nc2ccccn2)c2cccc(Oc3ccccc3)c2)ccc2cccnc12 (stereo not given)	< 70
COc1ccc(C(=O)Nc2nonc2-c2ccc(OC)c(OC)c2)cc1Cl	< 70
O=C(NC1CCN(c2ccc(S(=O)(=O)C(F)(F)F)cc2)CC1)C1CC1	< 70
Cc1ccc(C(=O)COC(=O)Cc2n[nH]c(=O)c3ccccc23)s1	< 70
CCCCCCc1cc2cc(-c3nc4ccccc4[nH]3)c(=Nc3ccccc3C)oc2cc1O	< 70
CNC(=O)C1Cc2ccccc2N1C(=O)Cc1ccc(F)cc1 (stereo not given)	< 70
CC1CC(C)CN(C(=O)c2ccc(Cl)cc2Cl)C1 (stereo not given)	< 70
CNC(=O)c1ccc(CN(Cc2ccc(SC)cc2)Cc2ccco2)cc1	< 70
CCC(Sc1nc2ccccc2o1)C(=O)Nc1nccs1 (stereo not given)	< 70
O=C(c1[nH]nc2c1CCCC2)N1CCN(Cc2ccc3c(c2)OCO3)CC1	< 70
N#Cc1ccc(CN2CCCN(c3ncnc4sccc34)CC2)cc1	< 70
COc1ccc(-c2nc(C(=O)N3CCc4ccccc43)cs2)cc1OC	< 70
CCCCn1nc(C)c(C(=O)Nc2nc3ccccc3[nH]2)c1Cl	< 70
Nc1nccc2ccc(-c3ccc4nccn4c3)cc12	< 70
Cc1nn(Cc2ccccc2)c(Cl)c1C(=O)NC1CCCCCC1	< 70
CC(=O)N1CCN(c2ccc(Oc3ccc(Cl)cc3O)cc2)CC1	< 70
COc1ccc(-c2nn(C(C)C)c3ncnc(N)c23)cc1OC	< 70
CNC(=O)c1ccc(CN(C2CC2)S(=O)(=O)c2ccc(C)cc2C)cc1	< 70
COc1ccc(C=C2SC(=N)N(c3ccccc3OC)C2=O)cc1	< 70

Structure (SMILES)	growth inhibition at single dose [%]
CC1CCCCN1C(=O)NCCc1coc(-c2ccc(F)cc2)n1 (stereo not given)	< 70
COc1ccc2nc(C)cc(OCC(=O)NCc3ccccc3)c2c1	< 70
CC(C)c1ccc(CNCC(O)c2ccccc2)cc1 (stereo not given)	< 70
O=[N+]([O-])c1cn2c(n1)OC[C@@H](OCc1ccc(OC(F)(F)F)cc1)C2	< 70
Cc1ccc(O)c(C(=O)NCCC(C)C)c1	< 70
O=C(c1ccc(NCCO)cc1)C1C[C@H]1c1ccc(Cl)cc1 (stereo not given in full)	< 70
CCOc1cc(Br)c(C(C)NC(=O)c2cccc(OC)c2)cc1OCC (stereo not given)	< 70
CCCOCc1cc(CN2CCN(c3cccc(Cl)c3)CC2)c(O)c2ncccc12	< 70
Oc1ccc(-c2nc(-c3ccc4oc5ccc(-c6[nH]c(-c7ccc(O)cc7)nc6-c6ccccc6)cc5c4c3)c(-c3ccccc3)[nH]2)cc1	< 70
FC(F)(F)c1cccc(CNc2ncnc3sccc23)c1	< 70
CCOC(=O)c1noc(N)c1-c1ccccc1	< 70
COc1cc(C2=NCCN2)cc2cc(-c3ccc(C4=NCCN4)cc3)oc12	< 70
COc1ccc(-c2cn3c(C(=O)Nc4ccccc4Cl)c(-c4ccccc4)c4c3n2CCCC4)cc1	< 70
Cc1cc(Nc2ccc(C)c(Cl)c2)n2nc(C(F)(F)F)nc2n1	< 70
Cc1noc(C)c1S(=O)(=O)N(Cc1ccc(C(=O)NC2CC2)cc1)C1CC1	< 70
N#CCN(CCCCN1CCN(c2ccc(F)cc2)CC1)C(=O)OCc1ccccc1	< 70
Cc1ccc(CSCc2ccc(C(=O)NC3CC3)o2)cc1	< 70
COc1cccc(Nc2nc(NCCO)c3ccccc3n2)c1	< 70
CC(=O)c1ccc(NC(=O)CSc2nc(-c3ccccc3Cl)ns2)cc1	< 70
COc1ccc(-n2ccnc2SCC(=O)Nc2cc(C)ccc2C)c(OC)c1	< 70
CN(C)c1ccc(N=Cc2ccc(N3CCOCC3)cc2)cc1	< 70
COc1ccc(CC(=O)N2CCN(C)c3nc4ccccc4nc32)cc1F	< 70
CNc1snc(C)c1C(=O)N(C)Cc1ccc(C(C)C)cc1	< 70

Source: the supplement of paper PMC8837787
